Results: patent US10449257B2, “Self-assembled composite ultrasmall peptide-polymer hydrogels” (Agency for Science, Technology and Research, priority 2011, dated 2019)
“And” between values parts separate entries of the source, which are not always exact repeats. Equal entries are not always repeated. Where a SMILES comes first, the peptide text is derived from it. Where no end group is shown, it is not given here.

What was measured:
[1] = test system: human derived adipose stem cells; experiment: Subcutaneous implantation of hydrogels seeded with human derived adipose stem cells; type: in vivo; conditions: nude mice, after 45 days
Description: FIG. 16. In vivo scaffold for adipose tissue regeneration Fat pad observed under the skeletal muscle layer in the region of the human adipose stem cell (hASC) implant 45 days post-implantation (A-C). The transplanted cells have the appearance of normal mature adipose tissue (D)—adipocytes with dark nuclei at edge, cells filled with fat.

[2] = Pilot study with 4 mice (10 days): blood cell counts after hydrogel implant; type: in vivo; conditions: 30 μL gel implant
Description: There were no behavioral changes or weight loss following implantation for up to 2 months, and there was no significant difference in red or white blood cell counts or blood chemistry (liver and kidney function) between mice implanted with hydrogels and sham operated mice.

[3] = test system: plasmid DNA; experiment: Composite peptide-DNA hydrogels: DNA loading, encapsulation and release; type: physicochemical; conditions: for amount of DNA that can be incorporated into the composite hydrogel: plasmid DNA loading
Method: Various peptides (AcLD6, i.e. Ac-LIVAGD, SEQ ID NO: 65; AcLK6, i.e. Ac-LIVAGK, SEQ ID NO: 66; AcLS6, i.e. Ac-LIVAGS, SEQ ID NO: 67) were used to encapsulate plasmid DNA, forming composite peptide-DNA hydrogels (A). […] When the composite hydrogels were incubated with DNAse, digested DNA fragments were not observed, compared to the naked DNA control. […] Potential applications include synthetic cell culture substrates that mediate sustained DNA, mRNA, siRNA and short hairpin RNA delivery (C).
The peptide sequence (particularly the polar head group) and concentration plays a significant role in determining the maximum amount of DNA that can be incorporated into the composite hydrogel.
Even after 10 days, at least 80% of the DNA loaded remained in composite hydrogel. In particular, the Ac-LIVAGK (L)-DNA hydrogel retained 95% of the DNA added. The release of the nucleic acid can potentially be modulated by the peptide composition.

[4] = Peptide stability studies (TGA, 1H-NMR, HPLC-MS after UV or autoclave treatment); type: physicochemical; conditions: for decomposition by 1H-NMR: UV treated (2 h, 254 nm) or autoclaved (30 min, 120° C.); for degradation by HPLC-MS: following UV and autoclave treatment
[5] = SCID mice, listed as Ac-LIVAGK (L) gel

erythrocytes [2, 5]	lymphocytes [2, 5]	monocytes [2, 5]	thrombocytes [2, 5]	basophils ([2]; normal mouse)	eosinophils ([2]; normal mouse)	erythrocytes ([2]; normal mouse)	lymphocytes ([2]; normal mouse)	monocytes ([2]; normal mouse)	neutrophils ([2]; normal mouse)	thrombocytes ([2]; normal mouse)	release of the DNA ([3]; over the course of several days)	Compound	adipose tissue formation under the implant site [1]	encapsulating and trapping of plasmid DNA ([3]; composite peptide-DNA hydrogel)	amount of DNA that can be incorporated into the composite hydrogel [3]	decomposition by 1H-NMR [4]	degradation by HPLC-MS [4]
9.29 M/uL and 11.33 M/uL	0.88 K/uL and 0.9 K/uL	0.22 K/uL and 0.12 K/uL	0.607 M/uL and 0.978 M/uL	0.02 K/uL	0.11 K/uL	10.65 M/uL	3.76 K/uL	0.42 K/uL	1.6 K/uL	0.833 M/uL	minimal release of the DNA	CC[C@H](C)[C@H](NC(=O)[C@H](CC(C)C)NC(C)=O)C(=O)N[C@H](C(=O)N[C@@H](C)C(=O)NCC(=O)N[C@@H](CCCCN)C(=O)O)C(C)C [AcLK6, Ac-LIVAGK] (Ac-LIVAGK-OH)	formation of fat pads	extremely efficient in encapsulating and trapping the DNA	could integrate the highest concentration of DNA		
												Ac-IVD (Ac-Ile-Val-Asp) [AcID3]				do not decompose	minimal
												Ac-LIVAGD [AcLD6]			lowest threshold for DNA loading	do not decompose	minimal
